The results in this text go back to patent publication US20110085978A1, “NOVEL QUINOLINYLAMIDE DERIVATIVES USEFUL AS MODULATORS OF DOPAMINE AND SEROTONIN RECEPTORS” (NeuroSearch A/S, priority 2008, published 2011).

For the experiment, the system named is MK801 induced hyperactivity in female NMRI mice. The experiment in a line: MK801 induced hyperactivity. Format: in vivo. The settings on record: test compound subcutaneously 30 minutes before test start at 3, 10, 30 mg/kg, MK801 0.2 mg/kg ip. On the procedure:
Female NMRI mice (Taconic M&B, P.O. box 1079, DK-8680 Ry, Denmark) are kept in a ventilated closed rack (Scantainer, Scanbur Ltd., Denmark) at constant temperature (21° C.) and humidity (60-70%) with a 7:00 a.m light/7:00 p.m dark cycle. Food (altromin rat pellets) and water were available ad libitum.
Experiments were conducted during daytime in the light phase. The animals were habituated to the experimental room approximately 24 hours before start of the experiments.
MK801 induced hyperactivity was measured in automated activity frames (TSE Home Cage Activity Monitoring System, MoTil, TSE technical & scientific equipment GmbH, Germany) equipped with infrared photobeam emitters and sensors. MK801 was administered in a dose of 0.2 mg/kg ip immediately before test start.
Test compound was pretreated subcutaneously 30 minutes before test start at the following doses 3, 10, 30 mg/kg in a dose volume of 10 ml/kg.

With `COc1ccccc1N1CCN(CCCCC(=O)Nc2ccc3ncccc3c2)CC1` [Compound A3, 5-[4-(2-Methoxy-phenyl)-piperazin-1-yl]-pentanoic acid quinolin-6-ylamide], the “Minimal Effective Dose (M.E.D) that significantly reduces MK801 induced hyperactivity” value was determined as 10 mg/kg.
Turning to `O=C(CCCCN1CCC(c2ccccc2)CC1)Nc1ccc2ncccc2c1` [Compound A4, 5-(4-Phenyl-piperidin-1-yl)-pentanoic acid quinolin-6-ylamide], the “Minimal Effective Dose (M.E.D) that significantly reduces MK801 induced hyperactivity” value worked out at 10 mg/kg.
